From patent publication EP1038864A1, “NOVEL METALLOPROTEINASE INHIBITORS” (FUJI YAKUHIN KOGYO KABUSHIKI KAISHA, priority 1997, dated 1999)
Where two headings read alike, the source gives them in different places.

Key:
[1] = molecular target: T1, human fibroblast collagenase (Homo sapiens, UniProt P03956); experiment: Assay for inhibition of collagenase (fluorescein-labeled bovine type I collagen substrate); assay type: biochemical
T1 sequence (P03956 100-469): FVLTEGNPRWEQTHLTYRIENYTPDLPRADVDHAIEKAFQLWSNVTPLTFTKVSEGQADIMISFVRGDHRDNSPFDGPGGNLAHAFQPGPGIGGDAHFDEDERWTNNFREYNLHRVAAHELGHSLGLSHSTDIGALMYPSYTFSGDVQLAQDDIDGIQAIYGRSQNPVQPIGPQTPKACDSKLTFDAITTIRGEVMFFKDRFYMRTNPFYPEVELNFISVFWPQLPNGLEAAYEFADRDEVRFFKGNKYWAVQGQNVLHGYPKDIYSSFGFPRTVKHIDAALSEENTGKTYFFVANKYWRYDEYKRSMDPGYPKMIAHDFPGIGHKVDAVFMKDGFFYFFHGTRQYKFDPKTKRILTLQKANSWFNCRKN
Procedure: (§1) Described below are assays for biological activities of the compounds according to the present invention, formulations, dosage forms and dosage levels thereof, and miscellaneous matters. The efficacy of the compounds represented by the formula (I) according to the present invention as inhibitors of human fibroblast collagenase (metalloproteinase involved in the breakdown of tissues) is determined by a procedure based on the method of Y. Murawaki et al., Journal of Hepatology, 18, p328-334 (1993). The efficacy of the compounds (I) of this invention as inhibitors of human fibroblast stromelysin is determined by a procedure based on the method of S. S. Twining, Anal. Biochem., 143, p30 (1984). The assay results obtained are shown hereinbelow, together with biological examples which illustrate embodiments of the assay protocols.
The efficacy of compounds of the present invention to act as inhibitors of human fibroblast collagenase was determined by the procedure of Y. Murawaki et al. (Journal of Hepatology, 18, p.328-334, 1993), compared with a reference compound.
Procollagenase was activated by incubation with 2 mM 4-aminophenylmercuric acetate (APMA) at 35°C for 2 hours. The inhibition was assayed using, as a substrate, fluorescein-labeled bovine type I collagen. To a solution of the substrate (0.5 mg/ml) in a 50 mM Tris-HCl buffer, pH 7.5, containing 0.4M aqueous sodium chloride and 10 mM aqueous […] was added the activated collagenase. The resultant solution was incubated at 35°C for 2 hours. The digestion of the substrate with the enzyme was stopped by addition of 80 mM o-phenanthroline, followed by addition of a porcine elastase solution formed by dissolving 25 µg/ml porcine elastase in the aforementioned Tris-HCl buffer. The mixture was incubated at 37°C for 10 minutes. To the resulting solution was added 70% ethanol, and a 170 mM Tris-HCl buffer, pH 9.5, containing 0.67M aqueous sodium chloride. Undigested substrates were precipitated by centrifugation at 3000 x g for 20 minutes. The supernatant was collected and the fluorescence was read using an excitation wavelength of 495 nm and an emission wavelength of 520 nm. The inhibitory potency of the compounds was calculated. […] The resulting assay data for representative examples are shown in Table 1, compared with the reference compound. […]

TNF-α Convertase = TNF-α Convertase (Homo sapiens, UniProt P78536); experiment: Assay for inhibition of TNF-α production in LPS-stimulated, PMA-differentiated U937 cells
Sequence of TNF-α Convertase (P78536 215-824): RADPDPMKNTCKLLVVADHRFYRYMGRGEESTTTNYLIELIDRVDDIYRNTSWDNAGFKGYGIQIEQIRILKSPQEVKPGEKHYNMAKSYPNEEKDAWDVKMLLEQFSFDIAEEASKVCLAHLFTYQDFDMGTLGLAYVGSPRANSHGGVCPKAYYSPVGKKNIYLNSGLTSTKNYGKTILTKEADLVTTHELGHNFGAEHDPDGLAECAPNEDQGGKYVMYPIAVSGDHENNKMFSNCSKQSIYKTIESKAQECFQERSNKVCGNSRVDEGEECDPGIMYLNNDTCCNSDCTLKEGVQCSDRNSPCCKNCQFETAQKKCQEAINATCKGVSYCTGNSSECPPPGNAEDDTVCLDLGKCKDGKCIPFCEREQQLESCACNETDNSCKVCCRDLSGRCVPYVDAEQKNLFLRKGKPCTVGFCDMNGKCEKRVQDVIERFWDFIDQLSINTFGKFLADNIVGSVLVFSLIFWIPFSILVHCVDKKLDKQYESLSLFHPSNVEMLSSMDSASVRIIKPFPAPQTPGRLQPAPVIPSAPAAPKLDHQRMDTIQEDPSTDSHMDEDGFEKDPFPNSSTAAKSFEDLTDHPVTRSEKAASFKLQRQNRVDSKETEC
Procedure: Human monocytic leukemia cell line U937 (human histiocytic lymphoma cell line U937) cells were cultured in RPMI 1640 (Nissui Pharmaceutical Co., Ltd., Japan) supplemented with 5% fetal calf serum (FCS; IBL, Japan) in an incubator at 37°C under 5% CO2, then transferred to multiplates at a density of 1 x 10^6 cells/1 ml/well, and incubated overnight in the presence of 10^-7 M phorbol 12-myristate 13-acetate (Wako Pure Chemical Industries, Ltd., Japan) to form differentiated macrophage-like cells. To the resultant cells was added E. coli O127:B8 lipopolysaccaride (LPS, 0.1 µg/ml; Sigma) alone or along with each compound of the present invention, and the treated cells were then incubated for 6 hours in an incubator under 5% CO2 at 37°C. After the incubation, the cultures were collected and centrifuged at 3000 rpm for 10 minutes to give supernatants which were diluted with purified water and then assayed using a TNF-α assay kit, Genzyme (Table 3).

[2] = molecular target: human fibroblast stromelysin (Homo sapiens, UniProt P08254); experiment: Assay for inhibition of stromelysin (fluorescein-labeled casein substrate); assay type: biochemical
Sequence of human fibroblast stromelysin (P08254 100-477): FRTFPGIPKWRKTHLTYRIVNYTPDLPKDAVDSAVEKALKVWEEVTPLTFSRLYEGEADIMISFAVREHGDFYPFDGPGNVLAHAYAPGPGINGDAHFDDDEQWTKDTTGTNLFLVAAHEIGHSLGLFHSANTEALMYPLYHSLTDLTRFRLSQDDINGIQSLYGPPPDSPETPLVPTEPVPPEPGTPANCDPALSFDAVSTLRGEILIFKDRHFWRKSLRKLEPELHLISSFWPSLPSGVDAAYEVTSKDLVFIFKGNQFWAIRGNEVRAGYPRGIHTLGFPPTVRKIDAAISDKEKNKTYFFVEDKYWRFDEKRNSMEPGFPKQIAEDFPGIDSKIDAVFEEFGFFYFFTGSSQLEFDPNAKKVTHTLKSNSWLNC
Procedure: as §1
The efficacy of compounds of the present invention to act as inhibitors of human fibroblast stromelysin was determined by the procedure of Twining (Anal. Biochem., 143, p.30, 1984), compared with a reference compound.
Prostromelysin was activated by incubation with 20 µg/ml human plasmin at 37°C for 2 hours, and the reaction was stopped by addition of 2.8 mg/ml aqueous diisopropyl fluorophosphate. The inhibition was assayed using, as a substrate, fluorescein-labeled casein. To a solution of the substrate (1 mg/ml) in a 50 mM Tris-HCl buffer, pH 7.8, containing 10mM aqueous calcium chloride was added the activated stromelysin. The resultant solution was incubated at 37°C for 2 hours. The digestion of the substrate with the enzyme was stopped by addition of 5% trichloroacetic acid. Undigested substrates were precipitated by centrifugation at 3000 x g for 20 minutes. The supernatant was collected, followd by additon of a 0.5M Tris-HCl buffer, pH 8.5. The fluorescence was read using an excitation wavelength of 495 nm and an emission wavelength of 520 nm. The inhibitory potency of the compounds was calculated. […] The resulting assay data for representative examples are shown in Table 2, compared with the reference compound.

[3] = activated human fibroblast procollagenase, 35°C, 2 hours, pH 7.5, read-out: Inhibition of MMP-1
[4] = plasmin-activated human fibroblast prostromelysin, 37°C, 2 hours, pH 7.8, read-out: Inhibition of MMP-3

Row | Structure (SMILES) | IC50 (TNF-α Convertase) | IC50 [1, 3] | also measured
1 | CNC(=O)[C@H](CCCNC(=N)N)NC(=O)[C@H](CC(C)C)C(CC(C)C)C(=O)NO (single isomer, unassigned) [Compound No. 24, N^a-[4-(Hydroxyamino)-2(R),3(R or S)-diisobutylsuccinyl]-L-arginine N-methylamide · 1 acetate] | 0.48 µM |  | IC50 [1]: 0.005 µM; IC50 [2]: 0.018 µM
2 | CNC(=O)C(CCNC(=N)N)NC(=O)C(CC(C)C)C(C)C(=O)NO (single isomer, unassigned) [Compound No. 28, N^4-[3-Guanidino-1(S)-methylcarbamoylpropyl]-N^1-hydroxy-3(R)-isobutyl-2(R or S)-methylsuccinamide · 1 acetate] |  | 0.01 µM | 
3 | CC(=N)NCCCCC(NC(=O)C(CC(C)C)C(CCCc1ccccc1)C(=O)NO)C(=O)NCCO (single isomer, unassigned) [Compound No. 36, N^a-[4-(Hydroxyamino)-2(R)-isobutyl-3(R or S)-(3-phenylpropyl)-succinyl]-N^e-acetimidoyl-L-lysine N-(2-hydroxyethyl)amide · 1 acetate] |  | 0.014 µM | IC50 [2, 4]: 0.009 µM
4 | CNC(=O)[C@H](CCCNC(=N)N)NC(=O)[C@H](CC(C)C)C(CCOc1ccccc1)C(=O)NO (single isomer, unassigned) [Compound No. 54, N^a-[4-(Hydroxyamino)-2(R)-isobutyl-3(R or S)-(2-phenoxyethyl)succinyl]-L-arginine N-methylamide· 1 acetate] | 0.34 µM |  | IC50 [2]: 0.01 µM
5 | CNC(=O)[C@H](CCCCN)NC(=O)[C@H](CC(C)C)C(CCCc1cccc(C(=O)OC)c1)C(=O)NO (single isomer, unassigned) [Compound No. 71, N^a-[4-(Hydroxyamino)-2(R)-isobutyl-3(R or S)-[3-(m-methoxycarbonylphenyl)propyl]succinyl]-L-lysine N-methylamide· 1 acetate] | 0.352 µM | 0.004 µM | 
6 | CNC(=O)[C@H](CCCCN)NC(=O)[C@H](CC(C)C)C(CCCN1CCOCC1)C(=O)NO (single isomer, unassigned) [Compound No. 73, N^a-[4-(Hydroxyamino)-2(R)-isobutyl-3(R or S)-[3-(morpholin-4-yl)propyl]succinyl]-L-lysine N-methylamide· 1 acetate] |  | 0.011 µM | 
7 | CNC(=O)[C@H](CCN)NC(=O)[C@H](CC(C)C)C(CCCc1ccc(CN)cc1)C(=O)NO (single isomer, unassigned) [Compound No. 78, N^4-[3-Amino-1(S)-methylcarbamoylpropyl)-N^1-hydroxy-2(R or S)-[3-(p-aminomethylphenyl)propyl]-3(R)-isobutylsuccinamide· 2 acetate] |  | 0.018 µM | 
8 | CNC(=O)[C@@H](NC(=O)[C@H](CC(C)C)C(CCCc1ccc(CN)cc1)C(=O)NO)C(C)(C)C (single isomer, unassigned) [Compound No. 79, N^a-[4-(Hydroxyamino)-2(R)-isobutyl-3(R or S)-[3-(p-aminomethylphenyl)propyl]succinyl]-L-tert-leucine N-methylamide· 1 acetate] |  | 0.005 µM | 
9 | CNC(=O)[C@H](CCCN)NC(=O)[C@H](CC(C)C)C(CCCc1ccc(CN)cc1)C(=O)NO (single isomer, unassigned) [Compound No. 80, N^a-[4-(Hydroxyamino)-2(R)-isobutyl-3(R or S)-[3-(p-aminomethylphenyl)propyl]succinyl]-L-ornithine N-methylamide· 1 acetate] |  | 0.009 µM | 
10 | CNC(=O)C(CCCN)NC(=O)C(CC(C)C)C(CCCc1ccc(CNC(=N)N)cc1)C(=O)NO (single isomer, unassigned) [Compound No. 81, N^a-[4-(Hydroxyamino)-2(R)-isobutyl-3(R or S)-[3-(p-guanidomethylphenyl)propyl]succinyl]-L-ornithine N-methylamide · 2 acetate] | 0.737 µM | 0.013 µM | 
11 | CNC(=O)C(CCCCN)NC(=O)C(CC(C)C)C(CCCN1C(=O)N(C)C(C)(C)C1=O)C(=O)NO (single isomer, unassigned) [Compound No. 82, N^a-[4-(Hydroxyamino)-2(R)-isobutyl-3(R or S)-(3-(3,4,4-trimethyl-2,5-dioxo-imidazolidin-1-yl)propyl]succinyl]-L-lysine N-methylamide] |  | 0.004 µM | 
12 | CC(C)CC(C(=O)NO)[C@@H](CC(C)C)C(=O)N[C@@H](Cc1ccc(CN)cc1)C(=O)NCCC(=O)O (single isomer, unassigned) [Compound No. 84, N^a-[4-(Hydroxyamino)-2(R),3(R or S)-diisobutylsuccinyl]-4'-aminomethyl-L-phenylalanine N-(2-carboxyethyl)amide· 1 acetate] |  | 0.011 µM | 
13 | CC(C)CC(C(=O)NO)C(CC(C)C)C(=O)NC(Cc1ccc(CN)cc1)C(=O)NCCN(C)C (single isomer, unassigned) [Compound No. 89, N^a-[4-(Hydroxyamino)-2(R),3(R or S)-diisobutylsuccinyl]-4'-aminomethyl-L-phenylalanine N-(2-N',N'-dimethylaminoethyl)amide· 2 acetate] | 1.9 µM |  | 
14 | CNC(=O)C(CCCNC(=N)N)NC(=O)C(CC(C)C)C(C)C(=O)NO [Compound No. 25, N^a-[4-(Hydroxyamino)-2(R)-isobutyl-3(RS)-methylsuccinyl]-L-arginine N-methylamide · 1 acetate] |  | 0.01 µM | 
15 | CNC(=O)C(CCNC(=N)N)NC(=O)C(CC(C)C)C(CC(C)C)C(=O)NO [Compound No. 27, N^4-[3-Guanidino-1(S)-methylcarbamoylpropyl]-N^1-hydroxy-3(R),2(RS)-diisobutylsuccinamide · 1 acetate] |  | 0.007 µM | IC50 [2, 4]: 0.06 µM
16 | CNC(=O)C(CCCCNC(C)=N)NC(=O)C(CC(C)C)C(CCCc1ccccc1)C(=O)NO [Compound No. 30, N^a-[4-(Hydroxyamino)-2(R)-isobutyl-3(RS)-(3-phenylpropyl)-succinyl]-N^e-acetimidoyl-L-lysine N-methylamide · 1 acetate] |  | 0.01 µM | IC50 [2]: 0.012 µM
17 | CNC(=O)[C@H](C)NC(=O)[C@H](CC(C)C)C(CCCc1ccc(CN)cc1)C(=O)NO (stereo partly drawn) [Compound No. 58, N^a-[4-(Hydroxyamino)-2(R)-isobutyl-3(RS)-[3-(p-aminomethylphenyl)propyl]succinyl]-L-alanine N-methylamide · 1 acetate] | 0.942 µM |  | 
18 | CC(=N)NCc1ccc(CC(NC(=O)C(CC(C)C)C(CC(C)C)C(=O)NO)C(=O)NCCO)cc1 [Compound No. 91, N^a-[4-(Hydroxyamino)-2(R),3(RS)-diisobutylsuccinyl]-4'-acetimidoyliminomethyl-L-phenylalanine N-(2-hydroxyethyl)amide· 2 acetate] |  | 0.017 µM | 
19 | CCCOC[C@H](C(=O)N[C@@H](Cc1ccc(OC)cc1)C(=O)NC)[C@H](CSC(C)C)C(=O)NO [Reference Compound No. 1, N-[4-(N-hydroxyamino)-2(R)-n-propyloxymethyl-3(S)-isopropyl-thiomethylsuccinyl)-O-methyl-L-tyrosine-N-methylamide, reference compound] |  | 0.011 µM | 
